Measured values as given in patent US4386103A, “Dichloroamino acid derivatives useful as potent germicidal and fungicidal agents” (Merck & Co., Inc., priority 1981, dated 1983).

Assays:
Format in all cases: cell-based
Staphylococcus aureus = experiment: Contact germicidal screen, Staphylococcus aureus ATCC No. 6538
Procedure: (§1) The organisms used in the contact germicidal screen are all maintained as stock cultures on nutrient agar […] 4° C. They are transferred and biochemically diagnosed monthly. The five organisms used are: The media used are: […] Overnight cultures of the test organisms are grown in tryptose phosphate broth. After 15-16 hours, the cultures are centrifuged at […] for 15 minutes, and the supernatant replaced with fresh warm (37° C.) media. After two hours of incubation, the absorbance of the culture at 650 nm is determined and diluted with nutrient broth to 1×10^7 colony forming units per ml (using a previous determined standard curve: colony forming units/ml vs. absorbance at 650). The diluted cultures are maintained at 4°-8° C. throughout the screen. The compounds are weighed into sterile 100 ml volumetric flasks, and immediately before screening dissolved in one of the following buffers: 0.1 M NaOAc pH 4.6 or 0.1 M NaH2 PO4 pH 7.0. If solubility poses a problem, 10-30% methanol is used to effect solution. Two denaturing agents are also tested: […] Horse Serum restored with 100 ml distilled water and 10% Trition×100. When used, 2.5 ml of the denaturing agent is mixed with 2.5 ml of double strength test solution thirty minutes before the bacterial suspension is added. The screen is initiated when 0.2 ml of the bacterial suspension is added to 5.0 ml of the test solution contained in a sterile 25 ml glass stoppered flask. At intervals of 0.5, 2.5, 5.0, 10.0 and 15.0 minutes, a loopful of the inoculated test solution is subcultured into 5 ml of sterile nutrient broth and mixed with a vortex, the high dilution serving to stop the action of the compound. All of the subculture tubes are incubated at 37° C. and checked for signs of growth by turbidity at 1, 3, 5 and 7 days. The earliest subculture time at which no growth is present is considered the endpoint and is recorded as the sterilization time. An aliquot of 0.2 ml of the diluted culture is transferred to 5 ml of buffer to simulate 0.2 ml in 5 ml of test solution. (a) Purity: A loopful of the inoculated buffer is streaked onto nutrient agar to check colony morphology and lack of contaminants. (b) Viability: A loopful of the inoculated buffer is subcultured to 5 ml of nutrient broth as in the screen and incubated at 37° C. for 24 hours. (c) Dilution of the Test Solution: A loopful of the test solution is transferred to a 5 ml tube of nutrient broth, and a loopful of the inoculated buffer is transferred to the same tube of broth. […] (d) Purity of Organisms in the Test Solution: After the 15 minute subculture, a loopful of the inoculated test solution is streaked onto nutrient agar to insure that contamination has not occurred during the screen. (e) lack of Bactericidal Activity of Buffers and Other Solvents: Before a buffer or other solvent is used as a diluent, it is screened against the five organisms to insure that the buffer or solvent has no antibacterial activity itself.

Pseudamonas aeruginosa = experiment: Contact germicidal screen, Pseudamonas aeruginosa ATCC No. 14502
Procedure: as §1

Aspergillus fumigatus = experiment: Contact fungicidal screen, Aspergillus fumigatus; conditions: 0.1M NaOAc pH 4.6
Procedure: The organisms used in the Contact Fungicidal Screen are a dermatophyte, trychophyton mentagrophytes, frequently associated with athlete's foot; a yeast, Candida albican, causative agent of thrush and vaginitis; a phycomycete, Rhizopus oryzae, commonly known as black bread mold; an ascomycete, Aspergillus fumagatis, found in chicken droppings and causing lung infections; and another dermatophyte, Microsporum canis, which causes ringworm. These organisms are maintained as stock cultures at 4° C. on agar […] of the following composition: dextrose 2%, Neopeptone (Difco) 1%, agar 2%. Fluid medium of the same nutrient composition (without agar) was used to test the viability of the organisms after exposure to the fungicide. This medium is also known as Sabouraud's medium. Sabouraud's agar plate cultures of Aspergillus fumigatus, Microsporum canis, and a different culture of Trychophyton mentagrophytes are prepared by planting an inoculum at the center of an agar plate and incubating at 25°-30° C. for seven to ten days. The mycelial mats are removed from the surface of the agar and prepared in the same manner as the Rhizopus culture. The compounds are weighed into heat sterilized 100 ml volumetric flasks and immediately before screening dissolved in 0.1 M NaOAc pH 4.6 buffer (test solutions). The Aspergillus, Candida, Microsporum and Rhizopus species are screened in a slightly different manner. Basically, the procedure for the Contact Germicidal Efficiency Screen is utilized. After the test solutions are made up, 5 ml aliquots are pipetted into heat sterilized 25 ml glass stoppered erlenmeyer flasks. The screen is initiated when 0.5 ml of the 5×10^6 cell (spore) per ml suspension is added to the flask containing 5 ml of the test solution. […] The subculture tubes are incubated at 25°-30° C. for ten days with daily observation for mycelial growth. The earliest subculture time at which no growth is present is considered the endpoint and is recorded as the sterilization time. To insure the viability of the culture, a 0.5 ml aliquot of the 5×10^6 cells (spores) per ml suspension is transferred to 5 ml of the pH 4.6 buffer. A loopful of the inoculated buffer is then subcultured to 7 ml of fluid Sabouraud's medium and incubated at 25°-30° C. for ten days. To insure that the dilution of the test solution into the subculture medium does stop the action, a loopful of the test solution and a loopful of the inoculated buffer are transferred into the same subculture tube. This tube is also incubated at 25°-30° C. for ten days.

[1] = tested on: Trychophyton mentagrophytes; experiment: Contact fungicidal screen, Trychophyton mentagrophytes; conditions: 0.1M NaOAc pH 4.6
germs = experiment: Germicidal activity, lowest active concentration; conditions: read-out: concentration at which germicidal activity is shown
[2] = 10.0+ PPM, 0.1M NaOAc pH 4.6, screened simultaneously with four other compounds
[3] = 51.0 PPM, Triton X100 (10% solution):pH 4.6 buffer 1:1
[4] = 51.0 PPM, horse serum:pH 4.6 buffer 1:1
[5] = 300 PPM with 50% Horse Serum, 0.1M NaOAc pH 4.6
[6] = 300 PPM with 50% Triton X100, 0.1M NaOAc pH 4.6
[7] = 300 PPM, pH 4.6 buffer with 10% serum
[8] = 300 PPM, pH 4.6 buffer with 20% serum
[9] = 300 PPM, pH 4.6 buffer with 35% serum
[10] = 304.6 PPM, horse serum:pH 4.6 buffer 1:1
[11] = 304.8 PPM, Triton X100 (10% solution):pH 4.6 buffer 1:1
[12] = 606.9 PPM, pH 4.6 buffer with 33% serum
[13] = 899.25 PPM, pH 4.6 buffer with 25% serum
[14] = 1000 PPM with 50% Horse Serum, 0.1M NaOAc pH 4.6
[15] = 1001.2 PPM, horse serum:pH 4.6 buffer 1:1
[16] = 1016.0 PPM, 0.1M NaH2PO4 pH 7.0

CC(C)(CC(=O)O)N(Cl)Cl [(II)]
Sterilization Time (Staphylococcus aureus; 1.8 PPM, 0.1M NaOAc pH 4.6): 15.0 min
Sterilization Time (Staphylococcus aureus; 4.5 PPM, 0.1M NaOAc pH 4.6): 10.0 min
Sterilization Time (Staphylococcus aureus; [2]): 2.5 min
Sterilization Time (summary) (Staphylococcus aureus; 10 PPM, 0.1M NaOAc pH 4.6): 2.5 min
Sterilization Time (Staphylococcus aureus; 10.0 PPM, 0.1M NaOAc pH 4.6): 2.5 min
Sterilization Time (Staphylococcus aureus; 12.2 PPM, 0.1M NaOAc pH 4.6): 2.5 min
Sterilization Time (Staphylococcus aureus; 32.1 PPM, 0.1M NaOAc pH 4.6): 2.5 min
Sterilization Time (Staphylococcus aureus; [3]): 2.5 min
Sterilization Time (Staphylococcus aureus; [4]): 15 min
Sterilization Time (Staphylococcus aureus; 71.7 PPM, 0.1M NaOAc pH 4.6): 0.5 min
Sterilization Time (summary) (Staphylococcus aureus; 100 PPM, 0.1M NaOAc pH 4.6): 0.5 min
Sterilization Time (Staphylococcus aureus; 104.7 PPM, 0.1M NaOAc pH 4.6): 0.5 min
Sterilization Time (Staphylococcus aureus; 107.8 PPM, 0.1M NaH2PO4 pH 7.0): 10.0 min
Sterilization Time (Staphylococcus aureus; 298.9 PPM, 0.1M NaOAc pH 4.6): 0.5 min
Sterilization Time (summary) (Staphylococcus aureus; [5]): 15 min
Sterilization Time (summary) (Staphylococcus aureus; [6]): 0.5 min
Sterilization Time (Staphylococcus aureus; [7]): 0.5 min
Sterilization Time (Staphylococcus aureus; [8]): 2.5 min
Sterilization Time (Staphylococcus aureus; [9]): 10.0 min
Sterilization Time (Staphylococcus aureus; [10]): 15 min
Sterilization Time (Staphylococcus aureus; [11]): 0.5 min
Sterilization Time (Staphylococcus aureus; 316.6 PPM, 0.1M NaH2PO4 pH 7.0): 5.0 min
Sterilization Time (Staphylococcus aureus; [12]): 0.5 min
Sterilization Time (Staphylococcus aureus; [13]): 0.5 min
Sterilization Time (summary) (Staphylococcus aureus; [14]): 0.5 min
Sterilization Time (summary) (Staphylococcus aureus; 1000 PPM, 0.1M NaOAc pH 4.6): 0.5 min
Sterilization Time (Staphylococcus aureus; [15]): 0.5 min
Sterilization Time (Staphylococcus aureus; 1014.8 PPM, 0.1M NaOAc pH 4.6): 0.5 min
Sterilization Time (Staphylococcus aureus; [16]): 2.5 min
Sterilization Time (Pseudamonas aeruginosa; 1.8 PPM, 0.1M NaOAc pH 4.6): 15 min
Sterilization Time (Pseudamonas aeruginosa; 4.5 PPM, 0.1M NaOAc pH 4.6): 5.0 min
Sterilization Time (Pseudamonas aeruginosa; [2]): 2.5 min
Sterilization Time (summary) (Pseudamonas aeruginosa; 10 PPM, 0.1M NaOAc pH 4.6): 2.5 min
Sterilization Time (Pseudamonas aeruginosa; 10.0 PPM, 0.1M NaOAc pH 4.6): 2.5 min
Sterilization Time (Pseudamonas aeruginosa; 12.2 PPM, 0.1M NaOAc pH 4.6): 2.5 min
Sterilization Time (Pseudamonas aeruginosa; 32.1 PPM, 0.1M NaOAc pH 4.6): 2.5 min
Sterilization Time (Pseudamonas aeruginosa; [3]): 2.5 min
Sterilization Time (Pseudamonas aeruginosa; [4]): 15 min
Sterilization Time (Pseudamonas aeruginosa; 71.7 PPM, 0.1M NaOAc pH 4.6): 0.5 min
Sterilization Time (summary) (Pseudamonas aeruginosa; 100 PPM, 0.1M NaOAc pH 4.6): 0.5 min
Sterilization Time (Pseudamonas aeruginosa; 104.7 PPM, 0.1M NaOAc pH 4.6): 0.5 min
Sterilization Time (Pseudamonas aeruginosa; 107.8 PPM, 0.1M NaH2PO4 pH 7.0): 15 min
Sterilization Time (Pseudamonas aeruginosa; 298.9 PPM, 0.1M NaOAc pH 4.6): 0.5 min
Sterilization Time (summary) (Pseudamonas aeruginosa; [5]): 15 min
Sterilization Time (summary) (Pseudamonas aeruginosa; [6]): 0.5 min
Sterilization Time (Pseudamonas aeruginosa; [7]): 0.5 min
Sterilization Time (Pseudamonas aeruginosa; [8]): 2.5 min
Sterilization Time (Pseudamonas aeruginosa; [9]): 10.0 min
Sterilization Time (Pseudamonas aeruginosa; [10]): 15 min
Sterilization Time (Pseudamonas aeruginosa; [11]): 0.5 min
Sterilization Time (Pseudamonas aeruginosa; 316.6 PPM, 0.1M NaH2PO4 pH 7.0): 5.0 min
Sterilization Time (Pseudamonas aeruginosa; [12]): 2.5 min
Sterilization Time (Pseudamonas aeruginosa; [13]): 0.5 min
Sterilization Time (summary) (Pseudamonas aeruginosa; [14]): 2.5 min
Sterilization Time (summary) (Pseudamonas aeruginosa; 1000 PPM, 0.1M NaOAc pH 4.6): 0.5 min
Sterilization Time (Pseudamonas aeruginosa; [15]): 2.5 min
Sterilization Time (Pseudamonas aeruginosa; 1014.8 PPM, 0.1M NaOAc pH 4.6): 0.5 min
Sterilization Time (Pseudamonas aeruginosa; [16]): 2.5 min
Sterilization Time (Aspergillus fumigatus; 10 PPM): 15 min
Sterilization Time (Aspergillus fumigatus; 100 PPM): 15 min
Sterilization Time (Aspergillus fumigatus; 1000 PPM): 15 min
Sterilization Time ([1]; 10 PPM): 5.0 min
Sterilization Time ([1]; 100 PPM): 0.5 min
Sterilization Time ([1]; 1000 PPM): 0.5 min
minimal effective concentration (germs): ≤ 5 µg/mL
